The results in this text go back to ChEMBL document CHEMBL1155441 (J Med Chem, 2010).

In general, Ki refers to the dissociation constant of the complex between target and ligand, obtained from inhibition or displacement. What is called IC50 is the concentration that gives 50% inhibition.

In the experiment the target is WD repeat-containing protein 5 (Homo sapiens, UniProt P61964). Kind of experiment: Binding affinity to WDR5 expressed in pLysS cells by optimized fluorescent polarization based competitive binding assay. The class given is biochemical.

Turning to `CC(=O)N[C@@H](C)C(=O)N[C@@H](CCCNC(=N)N)C(=O)N[C@H](C(=O)N[C@@H](CCCCN)C(=O)N[C@@H](CCC(N)=O)C(=O)N[C@H](C(=O)N[C@@H](C)C(=O)N[C@@H](CCCNC(=N)N)C(=O)N[C@@H](CCCCN)C(=O)N[C@@H](CO)C(N)=O)[C@@H](C)O)[C@@H](C)O`, the Ki is < 0.001 µM.
On to `CC(=O)N[C@@H](C)C(=O)N[C@@H](CCCNC(=N)N)C(=O)N(C)[C@@H](C)C(N)=O`, for which the IC50 is > 300 µM and the Ki was > 50 µM.
In the same order, the values of `C[C@H](N)C(=O)N[C@@H](CCCN=C(N)N)C(=O)N[C@@H](C)C(N)=O` are > 300 µM and > 50 µM.
